Experimental data published in ChEMBL document CHEMBL3045385, “Design, synthesis and molecular modelling of novel 4-thiazolidinones of potential activity against Gram positive bacteria” (2013).
Converted amounts (≈) assume the structure as drawn. The source made the active and inactive calls. The calls are words filed in the database; no cut-off is given here.

Columns and labels:
[1] = test system: Escherichia coli; assay: Antibacterial activity against Escherichia coli ATCC 25922 at 6.25 to 100 ug/ml after 24 hr by two-fold serial dilution method; assay type: functional, organism-based
[2] = test system: Pseudomonas aeruginosa; assay: Antibacterial activity against Pseudomonas aeruginosa ATCC 27855 at 6.25 to 100 ug/ml after 24 hr by two-fold serial dilution method; assay type: functional, organism-based
[3] = test system: Shigella sonnei; assay: Antibacterial activity against Shigella sonnei ATCC 11060 at 6.25 to 100 ug/ml after 24 hr by two-fold serial dilution method; assay type: functional, organism-based
[4] = test system: Salmonella typhimurium; assay: Antibacterial activity against Salmonella enterica subsp. enterica serovar Typhimurium at 6.25 to 100 ug/ml after 24 hr by two-fold serial dilution method; assay type: functional, organism-based
[5] = test system: Candida albicans; assay: Antifungal activity against Candida albicans ATCC 10231 at 6.25 to 100 ug/ml after 7 days by two-fold serial dilution method; assay type: functional, organism-based
[6] = test system: Mycobacterium tuberculosis; assay: Antimycobacterium activity against Mycobacterium tuberculosis H37Rv at 100 ug/ml by Microplate Alamar Blue Assay; assay type: functional, organism-based
[7] = test system: Bacillus subtilis; assay: Antibacterial activity against Bacillus subtilis ATCC 10400 after 24 hr by two-fold serial dilution method; assay type: functional; conditions: ATCC 10400, 24 h
[8] = test system: Staphylococcus aureus; assay: Antibacterial activity against Staphylococcus aureus ATCC 25293 after 24 hr by two-fold serial dilution method; assay type: functional; conditions: ATCC 25293, 24 h
[9] = test system: Escherichia coli; assay: Antibacterial activity against Escherichia coli ATCC 25922 after 24 hr by two-fold serial dilution method; assay type: functional; conditions: ATCC 25922, 24 h
[10] = test system: Shigella sonnei; assay: Antibacterial activity against Shigella sonnei ATCC 11060 after 24 hr by two-fold serial dilution method; assay type: functional; conditions: ATCC 11060, 24 h
[11] = test system: Salmonella typhimurium; assay: Antibacterial activity against Salmonella enterica subsp. enterica serovar Typhimurium after 24 hr by two-fold serial dilution method; assay type: functional
[12] = test system: Bacillus subtilis; assay: Antibacterial activity against Bacillus subtilis ATCC 10400 at 6.25 to 100 ug/ml after 24 hr by two-fold serial dilution method; assay type: functional, organism-based
[13] = test system: Staphylococcus aureus; assay: Antibacterial activity against Staphylococcus aureus ATCC 25293 at 6.25 to 100 ug/ml after 24 hr by two-fold serial dilution method; assay type: functional, organism-based
[14] = test system: Pseudomonas aeruginosa; assay: Antibacterial activity against Pseudomonas aeruginosa ATCC 27855 after 24 hr by two-fold serial dilution method; assay type: functional; conditions: ATCC 27855, 24 h
[15] = test system: Candida albicans; assay: microbe, parasite or virus in culture; conditions: ATCC 10231, 168 h
Description: Antifungal activity against Candida albicans ATCC 10231 after 7 days by two-fold serial dilution method

SMILES	Activity [1]	Activity [2]	Activity [3]	Activity [4]	Activity [5]	Activity [6]	MIC [7]	MIC [8]	MIC [9]	MIC [10]	MIC [11]	Activity [12]	Activity [13]	MIC [14]	MIC [15]
Cc1ccc(C2SCC(=O)N2NC(=O)C(C)Oc2cc(Cl)c(Cl)cc2Cl)o1 (configuration not stated)	inactive	inactive	inactive	inactive	inactive	inactive	12.5 µg/mL (≈ 27.8 µM)	12.5 µg/mL (≈ 27.8 µM)							
O=C(N[C@H](CO)[C@H](O)c1ccc([N+](=O)[O-])cc1)C(Cl)Cl [CHLORAMPHENICOL]							6.25 µg/mL (≈ 19.3 µM)	6.25 µg/mL (≈ 19.3 µM)	12.5 µg/mL (≈ 38.7 µM)	25 µg/mL (≈ 77.4 µM)	25 µg/mL (≈ 77.4 µM)				
CC(Oc1cc(Cl)c(Cl)cc1Cl)C(=O)N/N=C\c1cccnc1 (configuration not stated)	inactive	inactive	inactive	inactive	inactive	inactive						inactive	inactive		
C/C(=N/NC(=O)C(C)Oc1cc(Cl)c(Cl)cc1Cl)c1ccc(Cl)cc1 (configuration not stated)	inactive	inactive	inactive	inactive	inactive	inactive						inactive	inactive		
CC(Oc1cc(Cl)c(Cl)cc1Cl)C(=O)NN1C(=O)CSC1c1cccnc1 (configuration not stated)	inactive	inactive	inactive	inactive	inactive	inactive	12.5 µg/mL (≈ 28 µM)	6.25 µg/mL (≈ 14 µM)							
CC(Oc1cc(Cl)c(Cl)cc1Cl)C(=O)NN1C(=O)CSC1c1ccncc1 (configuration not stated)	inactive	inactive	inactive	inactive	inactive	inactive	6.25 µg/mL (≈ 14 µM)	6.25 µg/mL (≈ 14 µM)							
C#CCN1C(=O)/C(=N/NC(=O)C(C)Oc2cc(Cl)c(Cl)cc2Cl)c2ccccc21 (configuration not stated)	inactive	inactive	inactive	inactive	inactive	inactive						inactive	inactive		
CC(Oc1cc(Cl)c(Cl)cc1Cl)C(=O)NN1C(=O)CSC1c1cccc([N+](=O)[O-])c1 (configuration not stated)	inactive	inactive	inactive	inactive	inactive	inactive	12.5 µg/mL (≈ 25.5 µM)	12.5 µg/mL (≈ 25.5 µM)							
Cc1ccc(C2(C)SCC(=O)N2NC(=O)C(C)Oc2cc(Cl)c(Cl)cc2Cl)cc1 (configuration not stated)	inactive	inactive	inactive	inactive	inactive	inactive	6.25 µg/mL (≈ 13.2 µM)	12.5 µg/mL (≈ 26.4 µM)							
Cc1ccc(/C=N\NC(=O)C(C)Oc2cc(Cl)c(Cl)cc2Cl)o1 (configuration not stated)	inactive	inactive	inactive	inactive	inactive	inactive						inactive	inactive		
CC(Oc1cc(Cl)c(Cl)cc1Cl)C(=O)NN1C(=O)CSC1c1cccs1 (configuration not stated)	inactive	inactive	inactive	inactive	inactive	inactive	6.25 µg/mL (≈ 13.8 µM)	6.25 µg/mL (≈ 13.8 µM)							
CC(Oc1cc(Cl)c(Cl)cc1Cl)C(=O)N/N=C\c1ccncc1 (configuration not stated)	inactive	inactive	inactive	inactive	inactive	inactive						inactive	inactive		
CC(Oc1cc(Cl)c(Cl)cc1Cl)C(=O)NN1C(=O)CSC1(C)c1ccc(Cl)cc1 (configuration not stated)	inactive	inactive	inactive	inactive	inactive	inactive	12.5 µg/mL (≈ 25.3 µM)	12.5 µg/mL (≈ 25.3 µM)							
C/C(=N/NC(=O)C(C)Oc1cc(Cl)c(Cl)cc1Cl)c1ccc(C)cc1 (configuration not stated)	inactive	inactive	inactive	inactive	inactive	inactive						inactive	inactive		
Cc1ccc(/C=N\NC(=O)C(C)Oc2cc(Cl)c(Cl)cc2Cl)s1 (configuration not stated)	inactive	inactive	inactive	inactive	inactive	inactive						inactive	inactive		
Clc1ccc(COC(Cn2ccnc2)c2ccc(Cl)cc2Cl)c(Cl)c1 (configuration not stated) [MICONAZOLE]														3.12 µg/mL (≈ 7.5 µM)	3.12 µg/mL (≈ 7.5 µM)
Cc1ccc(C2SCC(=O)N2NC(=O)C(C)Oc2cc(Cl)c(Cl)cc2Cl)s1 (configuration not stated)	inactive	inactive	inactive	inactive	inactive	inactive	12.5 µg/mL (≈ 26.8 µM)	12.5 µg/mL (≈ 26.8 µM)							
C#CCN1C(=O)C2(SCC(=O)N2NC(=O)C(C)Oc2cc(Cl)c(Cl)cc2Cl)c2ccccc21 (configuration not stated)	inactive	inactive	inactive	inactive	inactive	inactive	50 µg/mL (≈ 95.3 µM)	50 µg/mL (≈ 95.3 µM)							
CC(Oc1cc(Cl)c(Cl)cc1Cl)C(=O)N/N=C1/C(=O)Nc2ccccc21 (configuration not stated)	inactive	inactive	inactive	inactive	inactive	inactive						inactive	inactive		
CC(Oc1cc(Cl)c(Cl)cc1Cl)C(=O)N/N=C\c1cccc([N+](=O)[O-])c1 (configuration not stated)	inactive	inactive	inactive	inactive	inactive	inactive						inactive	inactive		
CC(Oc1cc(Cl)c(Cl)cc1Cl)C(=O)N/N=C\c1cccs1 (configuration not stated)	inactive	inactive	inactive	inactive	inactive	inactive						inactive	inactive		
CC(Oc1cc(Cl)c(Cl)cc1Cl)C(=O)NN1C(=O)CSC12C(=O)Nc1ccccc12 (configuration not stated)	inactive	inactive	inactive	inactive	inactive	inactive	50 µg/mL (≈ 103 µM)	25 µg/mL (≈ 51.4 µM)							
